Tested on: S. carnosus TM300
Assay: RNAseq differential gene expression
Type: cell-based, Staphylococcus carnosus
Method: For the RNAseq experiments, epilancin was added at sub-lethal concentration (0.5x MIC) to S. carnosus TM300 once the cultures reached an OD600 of 0.6. RNA was extracted 40 min after the treatment, using a FastRNA Pro Blue kit (MP Biomedicals). Both treated and parallel untreated samples were collected at the same time. Sequencing was performed at the Carver Biotechnology Center (UIUC). For RNAseq analysis, gene counts were read in to R (v3.1.1; [Team, 2014]), and 14/2441 genes were removed because they had fewer than 32 total counts across the six samples. edgeR’s (v3.6.7) TMM normalization ([Robinson and Oshlack, 2010]) plus negative binomial generalized log-linear model ([McCarthy et al., 2012]) was used to test for differential expression between treated and untreated groups, while accounting for pairing of U and T replicates from three different cultures. p-values were adjusted using the false discovery rate method ([Benjamini and Hochberg, 1995]).

[1] = AraC family transcriptional regulator
[2] = S. carnosus TM300, 0.5x MIC, RNA extracted 40 min after treatment

Substance: Epilancin 15X
- fold_change Sca_0118: 2.03
- fold_change Sca_0226: 2.6
- fold_change Sca_0277: 4.82
- fold_change Sca_0326: 2.89
- fold_change Sca_0702: 3.4
- fold_change Sca_1839: 2.65
- fold_change Sca_0283 (4-aminobutyrate aminotransferase): 2.6
- fold_change Sca_1048 (5-bromo-4-chloroindolyl phosphate hydrolysis protein XpaC): 2.07
- fold_change rpsN (30S ribosomal protein S14): 0.49
- fold_change rplS (50S ribosomal protein L19): 0.5
- fold_change Sca_1439 (ABC transporter ATP-binding protein): 2.23
- fold_change Sca_0292 (ATP-binding cassette transporter A): 2.29
- fold_change clpP (ATP-dependent Clp protease proteolytic subunit): 5.08
- fold_change recG (ATP-dependent DNA helicase RecG): 2.72
- fold_change Sca_0180 (ATP:guanido phosphotransferase): 4.91
- fold_change Sca_0313 [1]: 2.06
- fold_change Sca_0314 [1]: 2.39
- fold_change Sca_0315 [1]: 2.4
- fold_change Sca_0113 (ArsR family transcription regulator): 4.25
- fold_change clpB (ClpB chaperone): 10.1
- fold_change clpC (ClpC ATPase family protein): 4.95
- fold_change dltA (D-alanine--poly(phosphoribitol) ligase subunit 1): 2.2
- fold_change dltC (D-alanine--poly(phosphoribitol) ligase subunit 2): 2.03
- fold_change dnaN (DNA polymerase III subunit beta): 2.14
- fold_change dinB (DNA polymerase IV, gene dinP): 2.92
- fold_change dltB (DltB membrane protein): 2.19
- fold_change Sca_2272 (Glycerate kinase): 2.24
- fold_change Sca_0776 (Glyoxalase family protein): 2.76
- fold_change hslO (Hsp33-like chaperonin, gene hsp33): 2.39
- fold_change Sca_0214 (LD-carboxypeptidase family protein): 0.5
- fold_change lexA (LexA repressor): 2.01
- fold_change Sca_0115 (LysR family transcriptional regulator): 2.11
- fold_change moaD (MoaD): 2.46
- fold_change moaE (MoaE): 2.53
- fold_change mobB (MobB): 2.72
- fold_change moaA (Molybdenum cofactor biosynthesis protein A): 2.82
- fold_change nanA (N-acetylneuraminate lyase): 2.13
- expression of vraR, upregulated compared to untreated control [2]: 8 fold
- expression of vraS, upregulated compared to untreated control [2]: 8 fold
- fold_change Sca_0453 (TOPRIM domain-containing protein): 3.05
- fold_change Sca_2234 (TetR family transcriptional regulator): 2.13
- fold_change Sca_2397 (ThiJ/PfpI family protein): 4.76
- fold_change gtaB (UTP-glucose-1-phosphate uridyltransferase): 0.5
- fold_change Sca_0065 (acetoin reductase): 4.35
- fold_change mecA (adaptor protein, gene SCA_0598): 2.48
- fold_change glpD (aerobic glycerol-3-phosphate dehydrogenase): 2.81
- fold_change Sca_2335 (alcohol dehydrogenase, zinc-containing, gene gutB): 2.81
- fold_change ahpC (alkyl hydroperoxide reductase subunit C): 5.8
- fold_change ahpF (alkyl hydroperoxide reductase subunit F): 5.74
- fold_change lrgB (antiholin-like protein LrgB): 5.42
- fold_change capM (capsular polysaccharide synthesis enzyme Cap5M): 0.49
- fold_change katA (catalase): 2.04
- fold_change dnaJ (chaperone protein DnaJ): 2.06
- fold_change uvrA (excinuclease ABC subunit A): 3.06
- fold_change uvrB (excinuclease ABC subunit B): 3.63
- fold_change uvrC (excinuclease ABC subunit C): 2.28
- fold_change Sca_1475 (formate dehydrogenase): 2.72
- fold_change fdh (formate dehydrogenase): 3.34
- fold_change (gene SCA_0282 (thrS), threonyl-tRNA synthetase): 0.44
- fold_change (gene Sca_0027 (ssb), putative single-strand DNA-binding protein): 0.48
- fold_change (gene Sca_0095, putative autolysin with LysM domain): 0.47
- fold_change (gene Sca_0210, Choloylglycine hydrolase family protein): 0.42
- fold_change (gene Sca_0261, FecCD transport family protein): 0.48
- fold_change (gene Sca_0273, putative lipoprotein, AdhesinB family protein): 0.41
- fold_change (gene Sca_0274, putative ABC transporter permease): 0.44
- fold_change (gene Sca_0348 (fruA), putative fructose specific permease): 0.49
- fold_change (gene Sca_0374, putative proton-dependent oligopeptide transporter): 0.43
- fold_change (gene Sca_0418, putative branched-chain amino acid transport system II carrier protein): 0.4
- fold_change (gene Sca_0437 (csp), putative cold-shock protein): 0.43
- fold_change (gene Sca_0445, hypothetical protein): 0.43
- fold_change (gene Sca_0446, hypothetical protein): 0.45
- fold_change (gene Sca_0547, cytosol aminopeptidase family protein): 0.42
- fold_change (gene Sca_0617, hypothetical protein): 0.45
- fold_change (gene Sca_0626, putative sodium transport protein): 0.4
- fold_change (gene Sca_0661): 0.41
- fold_change (gene Sca_0724, putative DNA binding protein): 0.44
- fold_change (gene Sca_0743, hypothetical protein): 0.4
- fold_change (gene Sca_0749, hypothetical protein): 0.48
- fold_change (gene Sca_0919, hypothetical protein): 0.44
- fold_change (gene Sca_0920, hypothetical protein): 0.46
- fold_change (gene Sca_0975, putative amino acid permease): 0.46
- fold_change (gene Sca_0984, hypothetical protein): 0.41
- fold_change (gene Sca_1053, hypothetical protein): 0.47
- fold_change (gene Sca_1134, hypothetical protein): 0.45
- fold_change (gene Sca_1194, hypothetical protein): 0.48
- fold_change (gene Sca_1195): 0.43
- fold_change (gene Sca_1364 (leuS''), leucyl-tRNA synthetase (fragment 2)): 0.47
- fold_change (gene Sca_1365 (leuS'), leucyl-tRNA synthetase (fragment 1)): 0.4
- fold_change (gene Sca_1388, hypothetical protein): 0.46
- fold_change (gene Sca_1421, hypothetical protein): 0.46
- fold_change (gene Sca_1425, hypothetical protein): 0.45
- fold_change (gene Sca_1427, hypothetical protein): 0.41
- fold_change (gene Sca_1433, hypothetical protein): 0.44
- fold_change (gene Sca_1450, hypothetical protein): 0.41
- fold_change (gene Sca_1584, hypothetical protein): 0.47
- fold_change (gene Sca_1777, hypothetical protein): 0.41
- fold_change (gene Sca_1794, hypothetical protein): 0.43
- fold_change (gene Sca_1832, hypothetical protein): 0.42
- fold_change (gene Sca_1870, hypothetical protein): 0.45
- fold_change (gene Sca_1880, hypothetical protein): 0.46
- fold_change (gene Sca_1922, putative integral membrane efflux protein): 0.41
- fold_change (gene Sca_1980, putative L-serine dehydratase beta chain): 0.42
- fold_change (gene Sca_1997, hypothetical protein): 0.49
- fold_change (gene Sca_2043, hypothetical protein): 0.46
- fold_change (gene Sca_2184, hypothetical protein): 0.4
- fold_change (gene Sca_2345, hypothetical protein): 0.41
- fold_change (gene Sca_2346, putative capsular polysaccharide biosynthesis protein): 0.41
- fold_change (gene Sca_2352, hypothetical protein): 0.48
- fold_change (gene Sca_2411): 0.47
- fold_change (gene apbA, putative 2-dehydropantoate 2-reductase): 0.47
- fold_change (gene aspS, aspartyl-tRNA synthetase): 0.43
- fold_change (gene atpD, F0F1 ATP synthase subunit beta): 0.41
- fold_change (gene capB, capsular polysaccharide biosynthesis protein): 0.43
- fold_change (gene ctaB, protoheme IX farnesyltransferase): 0.41
- fold_change (gene cysE, serine acetyltransferase): 0.46
- fold_change (gene deoD, purine nucleoside phosphorylase): 0.48
- fold_change (gene engB (SCA_1279), ribosome biogenesis GTP-binding protein YsxC): 0.47
- fold_change (gene fbp, putative fructose-bisphosphatase): 0.41
- fold_change (gene fecB, putative ferrichrome ABC transporter (binding protein)): 0.42
- fold_change (gene fruB, putative fructose 1-phosphate kinase): 0.42
- fold_change (gene gcvH (gcdH), glycine cleavage system protein H): 0.45
- fold_change (gene gcvPB' (gcvPB''), glycine dehydrogenase [decarboxylating] subunit 2(fragment 1)): 0.43
- fold_change (gene gntR, putative gluconate operon transcriptional repressor): 0.47
- fold_change (gene gudB, NAD-specific glutamate dehydrogenase): 0.47
